From patent publication US6455577B2, “Flavanone derivatives and composition for preventing or treating blood lipid level-related diseases comprising same” (Korea Research Institute of Bioscience and Biotechnology, priority 2000, dated 2002)

Experiments:
ACAT [1] = assay: ACAT activity in fed rabbits; type: in vivo, rabbit; conditions: rabbits fed 1% cholesterol plus 1 mg/kg Lovastatin or 0.1% NG5006, 8 weeks
Method: (§1) 22 three-month-old New Zealand White rabbits(Yeonam Horticulture and Animal Husbandry College, Korea) each weighing about 2.0 to 2.3 kg were bred under a condition of temperature 20±2° C., relative humidity 55±10%, and photoperiod 12L/12D. The rabbits were divided two groups of 6 rabbits and a group of 10 rabbits, and the rats of three groups were fed with three different diets, i.e., RC4 diet(Oriental Yeast Co., Japan) containing 1% cholesterol(Control group); 1% cholesterol plus 1 mg/kg Lovastatin® (Merck, U.S.A.)(Comparative group); and 1% cholesterol plus 0.1% NG5006, respectively. RC4 diet comprises 7.6% moisture, 22.8% crude protein, 2.8% crude fat, 8.8% crude ash, 14.4% crude cellulose and 43.6% soluble nitrogen-free substances. The rabbits were bred for 8 weeks while being allowed free access to the diets and water.
The effect of feeding NG5006 to rabbits on the activities of ACAT was determined using the rabbits bred in Step 1 of Example 14 in accordance with procedure disclosed in step 1 of Example 13.

[2] = system: New Zealand White rabbits; assay: Fatty streak in the main artery of cholesterol-fed rabbits; type: in vivo, rabbit
Method: as §1
The rabbits bred in Step 1 were sacrificed and their chest were incised. The main artery was cut out therefrom in a length of about 5 cm downward from the site 1 cm above the aortic valve and the fat surrounding the main artery was removed. The main artery was incised in the middle along the longitudinal axis and fixed in 10% neutral buffered formalin for 24 hours, and then, pinned to a dish. The moist artery was photographed and, then, staining of fatty streak was carried out in accordance with the method of Esper, E., et al. (J. Lab. Clin. Med., 121, 103-110(1993)) as follows.
A part of the incised main artery was washed three times by 2 min. with anhydrous propylene glycol and stained for 30 min. with a saturated solution of Oil Red O(ORO, Sigma Co.) dissolved in propylene glycol. Thereafter, the artery was washed twice by 3 min. with 85% propylene glycol to remove remaining staining solution and, then washed with physical saline. The artery was photographed and the photograph was traced. The area of stained legion(fatty streak legion) was determined with an image analyzer(LEICA, Q-600, Germany) and its proportion(%) to the total arterial area was calculated. The result is shown in Table V. The results were tested by student t-test by using Microsoft excel(version 7.0) program.

[3] = system: New Zealand White rabbits; assay: Abnormal fat-containing liver cells (fatty liver) in cholesterol-fed rabbits; type: in vivo, rabbit
Method: as §1
In order to evaluate the effects of feeding a high cholesterol diet with NG5006 on liver tissues, the liver specimens taken from the sacrificed rabbit in Step 2 of Example 14 were treated in accordance with the procedure disclosed in Fogt F. and Nanji A., Toxicology and Applied Pharmacology, 136, 87-93, 1996; and Keegan A., et al., Journal of Hepatology, 23, 591-600, 1995, and observed under a microscope to be classified into four grades, i.e., 1+(0-25%), 2+(26-50%), 3+(51-75), 4+(76-100%) based on the proportion of abnormal fat-containing cells around the central vein in the liver acinus. The results were tested by student t-test by using Microsoft excel(version 7.0) program.

Sprague-Dawley rats = assay: Plasma total cholesterol, HDL-cholesterol and triglyceride levels in rats fed high-cholesterol diet; type: in vivo, rat
From the text: (Step 1) Administration of NG5006 to rats
30 four-week-old white Sprague-Dawley rats (Korea Institute of Science and Technology, Korea), each weighing about 90 to 120 g, were evenly divided into three dietary groups by a randomized block design. The rats of the three groups were fed with three different high-cholesterol diets, i.e., AIN-76 laboratory animal diet(ICN Biochemicals, Cleveland, Ohio, U.S.A.) containing 1% cholesterol(Control group), 1% cholesterol plus 0.02% naringenin and 1% cholesterol plus 0.036% NG5006, respectively.
The rats were allowed to feed freely on the specified diet together with water for six weeks, the ingestion amount was recorded daily and the rats were weighed every 7 days, and then the record was analyzed. […] (Step 2) Determination of total cholesterol, HDL-cholesterol and triglyceride contents in blood
The effects of administering naringenin or NG5006 to rats on the plasma cholesterol and triglyceride contents were determined as follows.
Blood samples were taken from the rats of the three dietary groups and total cholesterol level was determined by using Sigma Diagnostic Kit Cat. No. C0534(Sigma Chemical Co., U.S.A.). HDL fractions were separated therefrom by using HDL-cholesterol reagent(Sigma Chemical Co., Cat. No. 352-1) and HDL-cholesterol level was determined by using Sigma Diagnostic Kit Cat. No. C9908(Sigma Chemical Co., U.S.A.). Triglyceride level was determined by using Sigma Diagnostic Kit Cat. No. 336-10(Sigma Chemical Co., U.S.A.).

HMG-CoA reductase = target: T1, HMG-CoA reductase (Rattus norvegicus, UniProt P51639); assay: HMG-CoA reductase activity in liver microsomes of fed rats; type: in vivo; conditions: liver microsomes of rats fed 1% cholesterol plus 0.02% naringenin or 0.036% NG5006, six weeks
T1 construct: microsomes were separated from liver tissues to be used as an enzyme source; from tissue; host or cells: liver microsomes of fed rats
T1 sequence (P51639 1-887): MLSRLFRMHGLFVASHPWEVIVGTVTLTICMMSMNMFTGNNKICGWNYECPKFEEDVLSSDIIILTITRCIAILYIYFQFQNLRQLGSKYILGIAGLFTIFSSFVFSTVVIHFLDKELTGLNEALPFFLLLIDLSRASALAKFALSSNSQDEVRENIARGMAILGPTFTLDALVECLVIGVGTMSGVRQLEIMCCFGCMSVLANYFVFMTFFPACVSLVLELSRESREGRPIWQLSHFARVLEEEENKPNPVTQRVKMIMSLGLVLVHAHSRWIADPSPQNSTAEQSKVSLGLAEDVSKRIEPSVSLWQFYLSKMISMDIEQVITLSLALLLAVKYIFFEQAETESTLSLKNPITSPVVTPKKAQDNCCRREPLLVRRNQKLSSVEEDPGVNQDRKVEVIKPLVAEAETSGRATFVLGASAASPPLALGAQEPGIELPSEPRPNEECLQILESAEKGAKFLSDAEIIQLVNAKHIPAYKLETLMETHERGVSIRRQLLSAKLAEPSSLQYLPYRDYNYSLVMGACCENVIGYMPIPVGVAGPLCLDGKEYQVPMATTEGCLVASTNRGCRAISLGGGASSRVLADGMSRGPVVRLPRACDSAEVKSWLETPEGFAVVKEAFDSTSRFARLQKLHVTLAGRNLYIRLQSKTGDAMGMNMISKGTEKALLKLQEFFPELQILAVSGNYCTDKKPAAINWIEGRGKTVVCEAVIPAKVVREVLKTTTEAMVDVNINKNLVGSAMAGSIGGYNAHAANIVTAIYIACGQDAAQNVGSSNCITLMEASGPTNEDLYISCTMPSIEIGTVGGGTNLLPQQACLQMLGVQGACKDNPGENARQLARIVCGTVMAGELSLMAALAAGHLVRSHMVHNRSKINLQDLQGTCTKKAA
Method: (§2) To determine the effect of feeding NG5006 to rats on the activities of ACAT and HMG-CoA reductase, microsomes were separated from liver tissues to be used as an enzyme source.
(§3) 1 g each of the livers taken from each group of rats of Example 12 was homogenized in 5 ml of homogenization medium(0. 1 M KH2PO4, pH 7.4, 0.1 mM EDTA and 10 mM β-mercaptoethanol). The homogenate was centrifuged at 3,000×g for 10 min. at 4° C. and the supernatant thus obtained was centrifuged at 15,000×g for 15 min. at 4° C. to obtain a supernatant. The supernatant was put into an ultracentrifuge tube(Beckman) and centrifuged at 100,000×g for 1 hour at 4° C. to obtain microsomal pellets, which were then suspended in 3 ml of the homogenization medium and centrifuged at 100,000×g for 1 hour at 4° C. The pellets thus obtained were suspended in 1 ml of the homogenization medium. The protein concentration of the resulting suspension was determined by Lowry's method and then adjusted to 4 to 8 mg/ml. The resulting suspension was stored in a deep freezer(Biofreezer, Forma Scientific Inc.).
The activity of HMG-CoA reductase was determined by employing [^14C]HMG-CoA, in accordance with the method of Shapiro et al.(Biochemica et Biophysica Acta, 370, 369-377(1974)) as follows.
The enzyme in the supernatant containing the microsome obtained in (Step 1) was activated at 37° C. for 30 min. Added to a reaction tube were 20 μl of HMG-CoA reductase assay buffer(0.25M KH2PO4(pH 7.0), 8.75 mM EDTA, 25 mM DTT, 0.45 M KCl and 0.25 mg/ml BSA), 5 μl of 50 mM NADPH, 5 μl of [^14C]HMG-CoA(0.05μ Ci/tube, final conc. 120μM), and 10 μl of activated microsomal enzyme(0.03-0.04 mg), and the mixture was incubated at 37° C. for 30 min. […] A region having a Rf value ranging from 0.65 to 0.75 was removed by scraping with a disposable cover slips and assayed for radioactivity with 1450 Microbeta liquid scintillation counter(Wallac Co., Finland). Enzyme activities were calculated as picomoles mevalonic acid synthesized per min. per mg protein(pmoles/min/mg protein).

ACAT [4] = assay: ACAT activity in liver microsomes of fed rats; type: in vivo, rat; conditions: liver microsomes of rats fed 1% cholesterol plus 0.02% naringenin or 0.036% NG5006, six weeks
Method: as §2, §3
6.67 μl of 1 mg/ml cholesterol solution in acetone was mixed with 6 μl of 10% Triton WR-1339(Sigma Co.) in acetone and then, acetone was removed from the mixture by evaporation under a nitrogen flow. Distilled water was added to the resulting mixture to adjust the concentration of cholesterol to […].
Added to 10 μl of the resulting aqueous cholesterol solution were 10 μl of 1 M KH2PO4(pH 7.4), 5 μl of 0.6 mM bovine serum albumin(BSA), 10 μl of microsome solution obtained in (Step 1) and 55 μl of distilled water(total 90 μl). The mixture was pre-incubated in a water bath at 37° C. for 30 min. […]
200 μl of the resulting supernatant was put in a scintillation bottle and 4 ml of scintillation fluid(Lumac Co.) was added thereto. The mixture was assayed for radioactivity with 1450 Microbeta liquid scintillation counter(Wallac Co., Finland). ACAT activity was calculated as picomoles of cholesteryl oleate synthesized per min. per mg protein(pmoles/min/mg protein).

[5] = 1% cholesterol plus 1 mg/kg Lovastatin or 0.1% NG5006
[6] = plasma, rats on 1% cholesterol diet plus 0.02% naringenin or 0.036% NG5006, six weeks
[7] = rats, 1% cholesterol diet, six weeks

HMG-CoA reductase activity (HMG-CoA reductase) [pmole/min/mg protein] | Structure (SMILES) | ACAT activity (ACAT [1]) [pmole/min/mg protein] | % Inhibition on ACAT Activity (ACAT [1]; versus control group) [%] | layer on the arterial endothelium (FIGS. 1B, 1C) [2, 5] | formation of fatty streak compared to the control group, in words ([2]; 1% cholesterol plus 1 mg/kg Lovastatin or 0.1% NG5006, 8 weeks) | Fatty Streak lesion (proportion of total arterial area) ([2]; 1% cholesterol plus 1 mg/kg Lovastatin or 0.1% NG5006, 8 weeks, Oil Red O staining) [%] | microscopic features of the livers (FIGS. 2B, 2C) [3, 5] | Proportion of abnormal fat-containing liver cells (grade) ([3]; grades 1+(0-25%), 2+(26-50%), 3+(51-75), 4+(76-100%), 1% cholesterol plus 1 mg/kg Lovastatin or 0.1% NG5006, 8 weeks) | HDL-C (HDL-cholesterol) (Sprague-Dawley rats; [6]) [mg/dL] | HDL-C/Total-C (Sprague-Dawley rats; [6]) [%] | TG (triglyceride) (Sprague-Dawley rats; [6]) [mg/dL] | Total-C (total cholesterol) (Sprague-Dawley rats; [6]) [mg/dL] | AI: Atherosclerosis Index (AI = (Total-C − HDL-C)/HDL-C) (Sprague-Dawley rats; rats on 1% cholesterol diet plus 0.02% naringenin or 0.036% NG5006, six weeks) | total plasma cholesterol level lower than in the Control group (Sprague-Dawley rats; [7]) [%] | triglyceride level lower than in the control group (Sprague-Dawley rats; [7]) [%] | ACAT activity (ACAT [4]) [pmole/min/mg protein]
 | CC[C@H](C)C(=O)O[C@H]1C[C@@H](C)C=C2C=C[C@H](C)[C@H](CC[C@@H]3C[C@@H](O)CC(=O)O3)[C@H]21 [Lovastatin ®, Lovastatin, reference compound] | 246.1 ± 52.5 | 4.2 | no or very thin layers of macrophage-lipid complex | significantly inhibit the formation of fatty streak | 18.0 ± 9.5 | many cells containing excessive fat were observed around the central vein | 3.3 ± 1.1 |  |  |  |  |  |  |  | 
87.7 ± 5.9 | O=C1C[C@@H](c2ccc(O)cc2)Oc2cc(O)cc(O)c21 [Naringenin, naringenin, reference compound] |  |  |  |  |  |  |  | 35.8 ± 1.5 | 18.8 ± 0.9 | 143.7 ± 9.4 | 190.6 ± 7.6 | 4.3 ± 0.3 | 16 | 6 | 153.3 ± 6.9
